Source: patent US7071179B2, “Method of locking 1α-OH of vitamin D compounds in axial orientation” (Wisconsin Alumni Research Foundation, priority 1998, dated 2006)

Legend:
[1] = biological testing of 10,19-dihydrovitamin D3 compounds, in vivo biological response; details: compared among the 1α,25-dihydroxy-10,19-dihydrovitamin D3 compounds tested
[2] = test system: intestinal calcium transport; test: intestinal calcium transport activity; details: in vivo

CC(CCCC(C)(C)O)C1CCC2C(=CC=C3CC(O)CC(O)C3C)CCCC21C [1α,25-dihydroxy-10(S), 19-dihydrovitamin D3]
in vivo biological response [1]: greatest in vivo biological response
activity on intestinal calcium transport [2]: very significant activity
